Experimental data taken from patent publication US20100075930A1, “Salicylic salt compositions and related method of treatment of cardiac conditions” (priority 2008, published 2010).
Like-named read-outs stand apart in the source and are kept apart here.

Columns and labels:
[1] = cited from earlier work
[2] = low doses, 75-100 mg daily; cited from earlier work
[3] = cited from earlier work; remark: listed apart in the source
[4] = cited from earlier work; remark: listed apart in the source
[5] = for level of salicylic acid in the blood: 1000 mg under the tongue
Experimental: In order to assess the ability and the rate of absorption of a choline salicylate tablet under the tongue, the following experiment was conducted:

For `CC(=O)Oc1ccccc1C(=O)O` [Aspirin, acetyl salicylic acid], which “level of salicylic acid in the blood” value ([1]; after digestion of 1000 mg, reached after 2 hours only) is on record?
The value was 100 mg/Lt.

What about the “reduction of coronary events” value [2] of the same molecule?
Its value is 50%.

What about the water solubility [3] of the same molecule?
Its water solubility is “not soluble in water”.

What about the “patients who develop ulcers, perforations, bleeding, obstruction, stricture and/or enteropathy” value ([4]; patients taking aspirin) of the same molecule?
Its value is “More than 22%”.

What does the source list for `C[N+](C)(C)CCO.O=C([O-])c1ccccc1O` [choline salicylate]?
time of salicylic acid blood level peak after administration ([1]; oral administration): 2 h; reduction of gastrointestinal complications ([4]; as a salt syrup (compared to acid tablet)): 40%; side effects in clinical use ([4]; syrup absorbed through the gastro intestinal tract): no major side effects; level of salicylic acid in the blood ([5]; after 4 minutes): 21 mg/Lt; level of salicylic acid in the blood ([5]; time 0 min): 0.111 mmol/L; level of salicylic acid in the blood ([5]; time 0 min, conversion factor 0.00724): 15.331 mg/L; level of salicylic acid in the blood ([5]; time 2 min): 0.124 mmol/L; level of salicylic acid in the blood ([5]; time 2 min, conversion factor 0.00724): 17.127 mg/L; level of salicylic acid in the blood ([5]; time 4 min): 0.155 mmol/L; level of salicylic acid in the blood ([5]; time 4 min, conversion factor 0.00724): 21.409 mg/L; level of salicylic acid in the blood ([5]; time 6 min): 0.132 mmol/L; level of salicylic acid in the blood ([5]; time 6 min, conversion factor 0.00724): 18.232 mg/L; level of salicylic acid in the blood ([5]; time 8 min): 0.096 mmol/L; level of salicylic acid in the blood ([5]; time 8 min, conversion factor 0.00724): 13.260 mg/L; level of salicylic acid in the blood ([5]; time 10 min): 0.089 mmol/L; level of salicylic acid in the blood ([5]; time 10 min, conversion factor 0.00724): 12.293 mg/L; level of salicylic acid in the blood ([5]; time 12 min): 0.074 mmol/L; level of salicylic acid in the blood ([5]; time 12 min, conversion factor 0.00724): 10.221 mg/L; level of salicylic acid in the blood ([5]; time 14 min): 0.067 mmol/L; level of salicylic acid in the blood ([5]; time 14 min, conversion factor 0.00724): 9.254 mg/L; level of salicylic acid in the blood ([5]; time 19 min): 0.039 mmol/L; level of salicylic acid in the blood ([5]; time 19 min, conversion factor 0.00724): 5.387 mg/L; level of salicylic acid in the blood ([5]; time 24 min): 0.023 mmol/L; level of salicylic acid in the blood ([5]; time 24 min, conversion factor 0.00724): 3.177 mg/L; level of salicylic acid in the blood ([5]; time 29 min): 0.040 mmol/L; level of salicylic acid in the blood ([5]; time 29 min, conversion factor 0.00724): 5.525 mg/L; level of salicylic acid in the blood ([5]; time 34 min): 0.036 mmol/L; level of salicylic acid in the blood ([5]; time 34 min, conversion factor 0.00724): 4.972 mg/L; level of salicylic acid in the blood ([5]; time 39 min): 0.045 mmol/L; level of salicylic acid in the blood ([5]; time 39 min, conversion factor 0.00724): 6.215 mg/L; level of salicylic acid in the blood ([5]; time 44 min): 0.054 mmol/L; level of salicylic acid in the blood ([5]; time 44 min, conversion factor 0.00724): 7.459 mg/L; salicylic acid presented and available to act in the blood ([5]; 4 minutes after administration, assuming the blood volume is 5 litres): 100 mg; time of salicylic acid blood level peak after administration ([5]; sublingual method): 4 min
